Patent US20190365699A1, “Treatment of Kidney Tumors by Intratumoral Injection of Taxane Particles” (CRITITECH, INC., priority 2018, published 2019)
Like-named read-outs stand apart in the source and are kept apart here.

Legend:
[1] = Particle size analysis (light obscuration and laser diffraction); format: physicochemical
Description: The particle size of the taxane particles can be determined by a particle size analyzer instrument and the measurement is expressed as the mean diameter based on a number distribution (number). A suitable particle size analyzer instrument is one which employs the analytical technique of light obscuration, also referred to as photozone or single particle optical sensing (SPOS). A suitable light obscuration particle size analyzer instrument is the ACCUSIZER, such as the ACCUSIZER 780 SIS, available from Particle Sizing Systems, Port Richey, Fla. Another suitable particle size analyzer instrument is one which employs laser diffraction, such as the Shimadzu SALD-7101.
Particle size was analyzed by both light obscuration and laser diffraction methods.
The vials were vortexed for approximately 10 seconds and then sonicated in a sonic bath approximately 1 minute.
The vial was vortexed for approximately 10 seconds and then sonicated in a sonic bath for approximately 2 minutes. This suspension was used for laser diffraction analysis. Unused suspension was poured into a 125 mL particle-free plastic bottle, which was then filled to approximately 100 mL with filtered dispersant. The suspension was vortex for approximately 10 seconds and then sonicated in the sonic bath for approximately 2 minutes. This diluted suspension was used for light obscuration analysis. […]

[2] = Docetaxel dissolution study, USP Apparatus II; format: physicochemical
Experimental: The procedures used to determine the dissolution rates are as follows. […] Beads were transferred to a stainless steel mesh container and placed in the dissolution bath containing methanol/water 50/50 (v/v) media at 37° C., pH 7, and a USP Apparatus II (Paddle), operating at 75 rpm. At 10, 20, 30, 60, and 90 minutes, a 5 mL aliquot was removed, filtered through a 0.22 μm filter and analyzed on a UV/VIS spectrophotometer at 227 nm. Absorbance values of the samples were compared to those of standard solutions prepared in dissolution media to determine the amount of material dissolved. […] At 5, 15, 30, 60, 120 and 225 minutes, a 5 mL aliquot was removed, filtered through a 0.22 μm filter, and analyzed on a UV/VIS spectrophotometer at 232 nm. Absorbance values of the samples were compared to those of standard solutions prepared in dissolution media to determine the amount of material dissolved.
At 5, 15, 30, 60, 120 and 225 minutes, a 5 mL aliquot was removed, filtered through a 0.22 μm filter, and analyzed on a UV/VIS spectrophotometer at 232 nm. Absorbance values of the samples were compared to those of standard solutions prepared in dissolution media to determine the amount of material dissolved.

[3] = tested on: human renal cell adenocarcinoma (786-O cell line); test: Drug efficacy in rat xenograft model, tumor volume; format: in vivo; conditions: IV, QW × 3, 2.5-5 mg/kg
[4] = tested on: human renal cell adenocarcinoma (786-O cell line); test: H&E and immunohistochemical evaluation of xenograft tumors; format: in vivo, Rat (Rattus norvegicus); conditions: for morphologic and immunohistochemical appearance of tumor: IV, 3 weekly cycles, versus vehicle/control
Description: Tissue Collection: Primary Tumor (Inoculation site)—A final tumor measurement was taken prior to excision. Tumors were weighed after excision. Approximately ½ of each tumor (based on visual assessment) was flash frozen in 2-methylbutane on dry ice, the tumor piece was weighed when possible before it is flash frozen. The remaining was fixed in 10% neutral buffered formalin. Tumors were also collected from animals not reaching enrollment volume. Secondary Tumors—Any organ with visible tumors were collected and fixed in 10% neutral buffered formalin. Formalin fixed tissues were stored at room temperature. Frozen tissues were stored at −80° C. All tissue was stored for up to 3 months. Pictures of all tumors; primary and secondary if present, were taken.
Microscopic Examination: Tissues fixed with 10% NBF were embedded in paraffin. Each tumor was cut into 2-3 pieces and embedded and sectioned together.

[5] = Body weight and clinical observations in xenograft study; conditions: IV, group 6, initial dosage 5 mg/kg
Experimental: Individual Body Weights: Three times weekly (M, W, F) starting at the time of inoculation.
Macroscopic Examination: A necropsy was conducted on all animals dying spontaneously, euthanized in extremis or at the scheduled necropsy after 50 days post initiation of treatment. Animals euthanized in extremis or at study termination were euthanized by CO2 inhalation. Necropsy included examination of the external surface, all orifices and the thoracic, abdominal and pelvic cavities, including viscera. At the time of necropsy, a final body weight and body condition score was collected.

[6] = BET specific surface area analysis; format: physicochemical
Experimental: As used herein, the “specific surface area” (SSA) is the total surface area of the taxane particle per unit of taxane mass as measured by the Brunauer-Emmett-Teller (“BET”) isotherm by the following method: a known mass between 200 and 300 mg of the analyte is added to a 30 mL sample tube. […] The automated test is then carried out using the BETWIN® software package and the surface area of each sample is subsequently calculated. As will be understood by those of skill in the art, the “taxane particles” can include both agglomerated taxane particles and non-agglomerated taxane particles; since the SSA is determined on a per gram basis it takes into account both the larger agglomerated and smaller non-agglomerated taxane particles in the composition. The agglomerated taxane particles are defined herein as individual taxane particles that are formed by the agglomeration of smaller particles which fuse together forming the larger individual taxane particles, all of which occurs during the processing of the taxane particles. […]
A known mass between 200 and 300 mg of the analyte was added to a 30 mL sample tube. […] The automated test was then carried out using the BETWIN® software package and the surface area of each sample was subsequently calculated.

[7] = Bulk density (not tapped); format: physicochemical; conditions: room temperature
Experimental: As used herein, the “specific surface area” (SSA) is the total surface area of the taxane particle per unit of taxane mass as measured by the Brunauer-Emmett-Teller (“BET”) isotherm by the following method: a known mass between 200 and 300 mg of the analyte is added to a 30 mL sample tube. […] The automated test is then carried out using the BETWIN® software package and the surface area of each sample is subsequently calculated. As will be understood by those of skill in the art, the “taxane particles” can include both agglomerated taxane particles and non-agglomerated taxane particles; since the SSA is determined on a per gram basis it takes into account both the larger agglomerated and smaller non-agglomerated taxane particles in the composition. The agglomerated taxane particles are defined herein as individual taxane particles that are formed by the agglomeration of smaller particles which fuse together forming the larger individual taxane particles, all of which occurs during the processing of the taxane particles. The BET specific surface area test procedure is a compendial method included in both the United States Pharmaceopeia and the European Pharmaceopeia. […]
The mass of the drug was measured to a nearest 0.1 mg, the volume was determined to the nearest 0.1 mL and the density calculated.

[8] = Paclitaxel dissolution study, USP Apparatus II; format: physicochemical
Experimental: Beads were transferred to a stainless steel mesh container and placed in the dissolution bath containing methanol/water 50/50 (v/v) media at 37° C., pH 7, and a USP Apparatus II (Paddle), operating at 75 rpm. […] Absorbance values of the samples were compared to those of standard solutions prepared in dissolution media to determine the amount of material dissolved. […] Absorbance values of the samples were compared to those of standard solutions prepared in dissolution media to determine the amount of material dissolved.
Beads were transferred to a stainless steel mesh container and placed in the dissolution bath containing methanol/water 50/50 (v/v) media at 37° C., pH 7, and a USP Apparatus II (Paddle), operating at 75 rpm. […] Absorbance values of the samples were compared to those of standard solutions prepared in dissolution media to determine the amount of material dissolved.

| Surface area (BET, SSA) [6] [m^2/g] | Surface area (BET, SSA) ([6]; listed as raw paclitaxel) [m^2/g] | Bulk Density (not tapped) [7] [g/mL] | Paclitaxel Dissolution time course ([8]; 0 minutes) [%] | Dissolution (30 min) ([8]; methanol/water 50/50 (v/v), 37° C., pH 7, 75 rpm, 30 min) [%] | SMILES | Number Mean [1] [um] | Volume Mean [1] [um] | Docetaxel Dissolution time course ([2]; 0 minutes) [%] | Docetaxel Dissolution time course ([2]; 5 minutes) [%] | Docetaxel Dissolution time course ([2]; 15 minutes) [%] | Dissolution (30 min) ([2]; methanol/water 15/85 (v/v), 37° C., pH 7, 75 rpm, 30 min) [%] | tumor growth [3] | animals with Mild lymphohistiocytic infiltrate density ([4]; H/E and CD11b, IV docetaxel 3 cycles, 2 animals) | animals with <5% of tissue showing necrosis ([4]; IV docetaxel 3 cycles, 2 animals) | animals with viable carcinoma >10 mm ([4]; IV docetaxel 3 cycles, 2 female rats) | morphologic and immunohistochemical appearance of tumor [4] | morphologic and immunohistochemical appearance of tumor ([4]; listed as Docetaxel) | toxicity [5] |
| --- | --- | --- | --- | --- | --- | --- | --- | --- | --- | --- | --- | --- | --- | --- | --- | --- | --- | --- |
| – | – | – | – | – | CC(=O)O[C@@]12CO[C@@H]1C[C@H](O)[C@@]1(C)C(=O)[C@H](O)C3=C(C)[C@@H](OC(=O)[C@H](O)[C@@H](NC(=O)OC(C)(C)C)c4ccccc4)C[C@@](O)([C@@H](OC(=O)c4ccccc4)[C@H]21)C3(C)C [docetaxel] | 1.58 | 5.05 | 0.0 | 3.2 | 6.9 | 11 | partial tumor growth inhibition compared to vehicle control | 2 | 2 | 2 | identical morphologic and immunohistochemical appearance to that seen in the control and IT vehicle groups | no difference | observed toxicity on day 7 |
| 10.4 | 7.25 | 0.26 | 0.0 | 18 | CC(=O)O[C@H]1C(=O)[C@@]2(C)[C@H]([C@H](OC(=O)c3ccccc3)[C@]3(O)C[C@H](OC(=O)[C@H](O)[C@@H](NC(=O)c4ccccc4)c4ccccc4)C(C)=C1C3(C)C)[C@]1(OC(C)=O)CO[C@@H]1C[C@@H]2O [Paclitaxel Raw Material, paclitaxel] | – | – | – | – | – | – | – | – | – | – | – | – | – |
